Experimental data: ChEMBL document CHEMBL5143723, “Orally Bioavailable Enzymatic Inhibitor of CD38, MK-0159, Protects against Ischemia/Reperfusion Injury in the Murine Heart” (J Med Chem, 2022)

What was measured:
[1] = molecular target: T1, ADP-ribosyl cyclase/cyclic ADP-ribose hydrolase 1 (Homo sapiens, UniProt P28907)
T1 sequence (P28907 whole entry): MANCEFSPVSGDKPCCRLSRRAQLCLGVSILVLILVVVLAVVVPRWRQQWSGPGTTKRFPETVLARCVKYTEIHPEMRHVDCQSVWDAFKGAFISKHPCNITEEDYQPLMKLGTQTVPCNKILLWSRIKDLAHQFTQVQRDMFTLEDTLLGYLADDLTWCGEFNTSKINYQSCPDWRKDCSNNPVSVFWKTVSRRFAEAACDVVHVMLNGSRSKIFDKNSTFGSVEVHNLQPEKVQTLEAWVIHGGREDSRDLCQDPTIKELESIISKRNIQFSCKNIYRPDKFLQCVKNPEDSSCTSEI
Description: Inhibition of human his tagged CD38 using N6-etheno-NAD as substrate by fluorescence microplate reader assay

[2] = Drug exposure in mouse plasma assessed as AUC of drug at 3 mg/kg, po; assay type: ADME, organism-based; design: dose 3 mg/kg, route po

Row | Structure (SMILES) | IC50 [1] | AUC [2]
1 | COCCO[C@H]1CC[C@H](NC(=O)c2cc(-c3cccnn3)cc3cc[nH]c23)CC1 | > 100 µM | –
2 | COCCO[C@H]1CC[C@H](NC(=O)c2cc(-c3cncs3)cc3[nH]cc(C#N)c23)CC1 | – | 75 ng·h/mL
3 | COCCO[C@H]1CC[C@H](NC(=O)c2cc(-c3cncs3)cc3cc[nH]c23)CC1 | – | 7380 ng·h/mL
4 | COCCO[C@H]1CC[C@H](NC(=O)c2cc(-c3cncs3)nc3cc[nH]c23)CC1 | – | 6820 ng·h/mL
5 | COCCO[C@H]1CC[C@H](NC(=O)c2cc(-c3cncs3)c(F)c3[nH]ccc23)CC1 | – | 5110 ng·h/mL
6 | COCCO[C@H]1CC[C@H](NC(=O)c2cc(-c3ccccn3)cc3cc[nH]c23)CC1 | > 100 µM | –
7 | COCCO[C@H]1CC[C@H](N(C)C(=O)c2cc(-c3cncs3)cc3[nH]ccc23)CC1 | > 100 µM | –
8 | COCCO[C@H]1CC[C@H](NC(=O)c2cc(-n3ccnc3)cc3cn[nH]c23)CC1 | – | 207 ng·h/mL
